Assay results taken from US20180002288A1, “USE OF PICOLINAMIDES AS FUNGICIDES” (DOW AGROSCIENCES LLC, priority 2014, published 2018).
Read-outs that look alike come from different tables or passages of the source.

How the values were obtained:
Phakopsora pachyrhizi = experiment: Asian Soybean Rust fungicidal activity (PHAKPA); conditions: for pest or weed control at 25 ppm: Phakopsora pachyrhizi, in Glycine max
Puccinia triticina = experiment: Wheat Brown Rust fungicidal activity (PUCCRT); assay type: in vivo; conditions: Low Volume Cereal Activity at 121.5 g/Ha
Zymoseptoria tritici = experiment: Leaf Blotch of Wheat fungicidal activity (SEPTTR); assay type: in vivo; conditions: Low Volume Cereal Activity at 121.5 g/Ha
[1] = 24 h, read-out: PHAKPA 1DP % Control rating, soybean, high volume, 25 ppm, 1 Day Protectant
[2] = 72 h, read-out: PHAKPA 3DC % Control rating, soybean, high volume, 25 ppm, 3 Day Curative
[3] = 24 h, 1 Day Protectant, read-out: PUCCRT 1DP (Wheat Brown Rust, 1 Day Protectant)
[4] = 72 h, 3 Day Curative, read-out: PUCCRT 3DC (Wheat Brown Rust, 3 Day Curative)
[5] = 24 h, 1 Day Protectant, read-out: SEPTTR 1DP (Wheat Leaf Blotch, 1 Day Protectant)
[6] = 72 h, 3 Day Curative, read-out: SEPTTR 3DC (Wheat Leaf Blotch, 3 Day Curative)

| SMILES | pest or weed control at 25 ppm (Phakopsora pachyrhizi; [1]) [%] | pest or weed control at 25 ppm (Phakopsora pachyrhizi; [2]) [%] | pest or weed control at 121.5 g/ha (Puccinia triticina; [3]) [%] | pest or weed control at 121.5 g/ha (Puccinia triticina; [4]) [%] | pest or weed control at 121.5 g/ha (Zymoseptoria tritici; [5]) [%] | pest or weed control at 121.5 g/ha (Zymoseptoria tritici; [6]) [%] | PHAKPA 3DC % Control rating (Phakopsora pachyrhizi; soybean, high volume, 25 ppm, 3 Day Curative) |
| --- | --- | --- | --- | --- | --- | --- | --- |
| COc1cc(F)ccc1[C@@H](Oc1ccc(C)cc1)[C@H](C)OC(=O)[C@H](C)NC(=O)c1nccc(OC)c1OC(C)=O [Example 271] | < 80 | < 80 | > 80 | < 0 | > 80 | > 80 | – |
| COc1ccnc(C(=O)N[C@@H](C)C(=O)O[C@@H](C)[C@H](OCC2CC2)c2ccccc2)c1OCOC(C)=O [Example 182] | > 80 | < 80 | > 80 | > 80 | > 80 | > 80 | – |
| CCCOc1cc(F)ccc1[C@@H](Oc1ccccc1)[C@H](C)OC(=O)[C@H](C)NC(=O)c1nccc(OC)c1OC(C)=O [Example 268] | < 80 | < 80 | > 80 | > 80 | > 80 | > 80 | – |
| COc1cc(F)ccc1[C@@H](OC(=O)C(C)(C)C)[C@H](C)OC(=O)[C@H](C)NC(=O)c1nccc(OC)c1OC(C)=O [Example 296] | < 80 | < 80 | > 80 | < 0 | > 80 | > 80 | – |
| COc1ccnc(C(=O)N[C@@H](C)C(=O)O[C@@H](C)[C@H](Oc2cccc(F)c2)c2ccccc2)c1OC(C)=O [Example 188] | > 80 | < 80 | > 80 | > 80 | > 80 | > 80 | – |
| COc1ccnc(C(=O)N[C@@H](C)C(=O)O[C@@H](C)[C@@H](OC)c2ccccc2)c1OCOC(C)=O [Example 230] | < 80 | < 80 | > 80 | > 80 | < 0 | > 80 | – |
| COc1cc(F)ccc1[C@@H](OCC(F)F)[C@H](C)OC(=O)[C@H](C)NC(=O)c1nccc(OC)c1OC(C)=O [Example 294] | < 80 | < 80 | < 80 | < 80 | > 80 | > 80 | – |
| C=CCOc1cc(F)ccc1[C@@H](Oc1ccccc1)[C@H](C)OC(=O)[C@H](C)NC(=O)c1nccc(OC)c1OC(C)=O [Example 264] | < 80 | < 80 | > 80 | < 0 | > 80 | > 80 | – |
| COc1ccnc(C(=O)N[C@@H](C)C(=O)O[C@@H](C)[C@H](Oc2ccccc2)c2ccc(F)cc2OCC2CC2)c1OC(C)=O [Example 272] | < 80 | < 0 | > 80 | > 80 | > 80 | > 80 | – |
| CCCO[C@H](c1ccccc1)[C@H](C)OC(=O)[C@H](C)NC(=O)c1nccc(OC)c1OC(C)=O [Example 228] | > 80 | < 0 | > 80 | > 80 | < 80 | > 80 | – |
| COc1ccnc(C(=O)N[C@@H](C)C(=O)O[C@@H](C)[C@H](Oc2ccccc2)c2ccc(C)cc2F)c1OCOC(C)=O [Example 261] | > 80 | < 0 | > 80 | > 80 | > 80 | > 80 | – |
| COc1cc(F)ccc1[C@@H](Oc1ccccc1)[C@H](C)OC(=O)[C@H](C)NC(=O)c1nccc(OC)c1OC(C)=O [Example 269] | > 80 | – | > 80 | > 80 | > 80 | > 80 | B (≦80) |
| COc1ccnc(C(=O)N[C@@H](C)C(=O)O[C@@H](C)[C@H](Oc2ccccc2)c2ccc(F)cc2)c1OCOC(C)=O [Example 241] | > 80 | < 0 | > 80 | > 80 | > 80 | > 80 | – |
